Laboratory results reported in paper PMC3346935 (2012).
Residues, ends and D or L forms follow the SMILES beside them.

Columns and labels:
[1] = system: RNA 40 (RNA, aptamer) GGCAAGUACUCUGACGCAAGGGUAGAUAUGCGUAUAUGCAGAUCCCAAAUAAAGGACGAAUUUAGUACGGGGGGUGUGCGUAGAGGAGGACAGCG; assay: isocratic affinity elution from His–Phe–Sepharose; details: 600 mM NaCl, 5 mM MgCl2, 5 mM CaCl2; 50 mM HEPES pH 7.0
[2] = system: RNA 25 (RNA, aptamer) GGCAAGUACUCUGACGCCGAAGCCAGCCGGCGAUUGGGAACGACGGAAUUCCUCACUUCUGUUAAAGGUCAACCAGGGCGUAGAGGAGGACAGCG; assay: isocratic affinity elution from His–Phe–Sepharose; details: 600 mM NaCl, 5 mM MgCl2, 5 mM CaCl2; 50 mM HEPES pH 7.0
[3] = system: RNA 7 (RNA, aptamer) GGCAAGUACUCUGACGCAGAUGGAAGUACCUUUGAACUGGGGGAGAAUGGUUAUGAGAAUCUAGCGAAGCCGGAGGUGCGUAGAGGAGGACAGCG; assay: isocratic affinity elution from His–Phe–Sepharose; details: 600 mM NaCl, 5 mM MgCl2, 5 mM CaCl2; 50 mM HEPES pH 7.0
[4] = system: RNA 8 (RNA, aptamer) GGCAAGUACUCUGACGCAGUGGAAGUUAUGUGUAUGCGGUAGAUAGGUAACGUUCUGUCAUAGGAAGGUACUAUCGUGCGUAGAGGAGGACAGCG; assay: isocratic affinity elution from His–Phe–Sepharose; details: 600 mM NaCl, 5 mM MgCl2, 5 mM CaCl2; 50 mM HEPES pH 7.0
[5] = system: RNA 44 (RNA, aptamer) GGCAAGUACUCUGACGCUAGGCAGCGGCGAGGGAAGUUGGAGCUUAGACCAGUUAGGAGCUGGAGACCAGGCAGUCGGCGUAGAGGAGGACAGCG; assay: affinity column elution; details: 600 mM NaCl, 5 mM MgCl2, 5 mM CaCl2; 50 mM HEPES pH 7.0
[6] = system: RNA 24 (RNA, aptamer) GGCAAGUACUCUGACGCCCUGAGAGCGUAAUGUGACGGACAGUCGCACUGGAGGAGGAGGAAGUGAUGCAUCGAUCGGCGUAGAGGAGGACAGCG; assay: elution from His–Phe–Sepharose by free ligand; details: 600 mM NaCl, 5 mM MgCl2, 5 mM CaCl2; 50 mM HEPES pH 7.0; 1.5 mM dipeptide
[7] = system: RNA 20 (RNA, aptamer) GGCAAGUACUCUGACGCGGAUGGGCCACAACGGAUCAGACGACAGGCAUUCUUUGAAGGAAAGAUCCCAGCAGAGCGGCGUAGAGGAGGACAGCG; assay: elution from His–Phe–Sepharose by free ligand; details: 600 mM NaCl, 5 mM MgCl2, 5 mM CaCl2; 50 mM HEPES pH 7.0; 1.5 mM dipeptide
[8] = system: RNA 11 (RNA, aptamer) GGCAAGUACUCUGACGCGAGGGUGGAUACGUGUAUGCGGUUACAUCUGUGGUUUCUAAAAGAGCAAGCCGAUGUGGCGUAGAGGAGGACAGCG; assay: elution from His–Phe–Sepharose by free ligand; details: 600 mM NaCl, 5 mM MgCl2, 5 mM CaCl2; 50 mM HEPES pH 7.0; 1.5 mM dipeptide
[9] = system: RNA 6 (RNA, aptamer) GGCAAGUACUCUGACGCCGGUGGCGCAGACAGAUUUCCAGUAUGGCACGGACCGGAGAGGGAAGGAUGACAGACGUGGCGUAGAGGAGGACAGCG; assay: elution from His–Phe–Sepharose by free ligand; details: 600 mM NaCl, 5 mM MgCl2, 5 mM CaCl2; 50 mM HEPES pH 7.0; 1.5 mM dipeptide
[10] = system: RNA 33 (RNA, aptamer) GGCAAGUACUCUGACGCGCCGAAAUGGGAGGGGUGGCGUUAACCGGCAAAGCUGCACGGGCGAUGAAGAAACGCGGGGCGUAGAGGAGGACAGCG; assay: elution from His–Phe–Sepharose by free ligand; details: 600 mM NaCl, 5 mM MgCl2, 5 mM CaCl2; 50 mM HEPES pH 7.0; 1.5 mM dipeptide
[11] = system: RNA 35 (RNA, aptamer) GGCAAGUACUCUGACGCGUGGGAAGAUACGUGUAUACGCUAACAUACGGCAAGGUGAGUAGCCGGAAGUAGCAUGUGGCGUAGAGGAGGACAGCG; assay: elution from His–Phe–Sepharose by free ligand; details: 600 mM NaCl, 5 mM MgCl2, 5 mM CaCl2; 50 mM HEPES pH 7.0; 1.5 mM dipeptide
[12] = system: RNA 22 (RNA, aptamer) GGCAAGUACUCUGACGCGAAAUGUACAUGGCGUUAAAGUAGACGCAGGAUUAAGUGUGCUGUGGAGUCGAAACGCGGGCGUAGAGGAGGACAGCG; assay: elution from His–Phe–Sepharose by free ligand; details: 600 mM NaCl, 5 mM MgCl2, 5 mM CaCl2; 50 mM HEPES pH 7.0; 1.5 mM dipeptide
[13] = system: RNA 13 (RNA, aptamer) GGCAAGUACUCUGACGCCUGAUGUGAUGGCCUUGGUCGAAGCGGGAUCCGACAGCUACUAUAGAGGUGUUGUCGAGGGCGUAGAGGAGGACAGCG; assay: elution from His–Phe–Sepharose by free ligand; details: 600 mM NaCl, 5 mM MgCl2, 5 mM CaCl2; 50 mM HEPES pH 7.0; 1.5 mM dipeptide
[14] = system: RNA 12 (RNA, aptamer) GGCAAGUACUCUGACGCGUGCUGCGGGCCGUUCAUAGUGGACGGGGUAGACAGAGAACCUUAGACCAAGGUAUCGGCGCGUAGAGGAGGACAGCG; assay: elution from His–Phe–Sepharose by free ligand; details: 600 mM NaCl, 5 mM MgCl2, 5 mM CaCl2; 50 mM HEPES pH 7.0; 1.5 mM dipeptide
[15] = system: RNA 23 (RNA, aptamer) GGCAAGUACUCUGACGCGGAUGGGCCAACGGCGAGCGUCGAAGGAGCUUAGUACCGAAGCAACGCAAGCGUAGAGCGGCGUAGAGGAGGACAGCG; assay: elution from His–Phe–Sepharose by free ligand; details: 600 mM NaCl, 5 mM MgCl2, 5 mM CaCl2; 50 mM HEPES pH 7.0; 1.5 mM dipeptide
[16] = system: RNA 39 (RNA, aptamer) GGCAAGUACUCUGACGCGGAUGGGCCACCAAAGCACCGAAGGGUAGGAGCCACUAACUUGCGGUGAAUGGAAGAGCGGCGUAGAGGAGGACAGCG; assay: elution from His–Phe–Sepharose by free ligand; details: 600 mM NaCl, 5 mM MgCl2, 5 mM CaCl2; 50 mM HEPES pH 7.0; 1.5 mM dipeptide

Compound | K D [1] [mM] | K D [2] [mM] | K D [3] [mM] | K D [4] [mM] | binding [5] | binding [6] | binding [7] | binding [8] | binding [9] | binding [10] | binding [11] | binding [12] | binding [13] | binding [14] | binding [15] | binding [16]
N[C@@H](Cc1c[nH]cn1)C(=O)NCC(=O)O (H-His-Gly-OH) | 3.4 | 8.2 | 10.5 | 5.4 |  |  |  |  |  |  |  |  |  |  |  | 
N[C@@H](Cc1ccccc1)C(=O)O | > 227 | > 727 | 22 | > 34 | yes |  |  |  |  |  |  |  |  |  |  | 
N[C@@H](Cc1cnc[nH]1)C(=O)N[C@@H](Cc1ccccc1)C(=O)O (H-His-Phe-OH) | 0.077 ± 0.007 | 0.036 ± 0.002 | 0.478 ± 0.061 | 0.102 ± 0.033 | yes | yes | yes | yes | yes | yes | yes | yes | yes | yes | yes | yes
NCC(=O)N[C@@H](Cc1ccccc1)C(=O)O (H-Gly-Phe-OH) | 9.3 | > 727 | 31.6 | > 34 |  |  |  |  |  |  |  |  |  |  |  | 
N[C@@H](Cc1cnc[nH]1)C(=O)O | > 227 | > 727 | > 119 | > 34 | no |  |  |  |  |  |  |  |  |  |  | 
